Experimental data as given in patent US20040009904A1, “APL immunoreactive peptides, conjugates thereof and methods of treatment for aPL antibody-mediated pathologies” (priority 1995, published 2004).
“And” between values parts separate entries of the source, which are not always exact repeats. Identical values can stand only once. Bridge positions count the residues as written; N and C are the ends. Peptide text beside a SMILES is read from it.

Key:
ACA antibodies = test: Competitive binding peptide ACA ELISA, cardiolipin/β2-GPI-coated plates, panel of ACA antibodies (average); design: species or system human
Method: (§1) A variation of this assay uses microtitration plates coated with human β2-glycoprotein I/cardiolipin (β2-GPI/CL) instead of tetravalent peptide and tests the ability of monomeric peptides to block the binding of aPL antibody to the epitope(s) on β2-GPI/CL. In this assay, IgG-depleted human serum at an optimized concentration is used as a source of β2-GPI. The monomeric peptides at several concentrations are incubated with an optimized concentration of aPL antibody in a manner analogous to the assay which employs tetravalent peptide as a plate substrate. Following the incubation of aPL/peptide in (β2-GPI/CL) plates, antibody binding and the peptide concentration required for 50% inhibition is determined at half-maximal absorbance as in the tetravalent assay.
(§2) Peptide sequences for all five peptides immediately follow the table. All were tested using the competitive binding peptide ACA ELISA using CL/β2-GPI plates as described herein.
As noted in Section I above, one synthetic peptide, 6641/3G3 was tested against several high titer ACA antisera. This peptide appeared to be crossreactive with the vast majority of ACA antisera tested as illustrated in FIG. 14.
(§3) (B) Immulon I® 96-well, flat-bottom, polystyrene microtitration plates (Dynatech Laboratories, Inc., Chantilly, Va.) were coated with 30 μL/well of cardiolipin (CL, 50 μg; Sigma Chemical Co., St. Louis, Mo.) in ethanol. Two control wells received 30 μL ethanol only. After overnight evaporation at 4° C., each well was blocked with 200 μL of 5% (w/v) fish gelatin in PBS for 2 hours at RT.
(§4) The CL/β2-GPI microtitration plate was washed 5 times with TBS and 100 μL aliquots in duplicate from Eppendorf tubes #1, 2, 3, and 4 containing the antibody-peptide (or no peptide mixtures) were added to the wells. A volume of 100 μL from tube #4 was added to the duplicate control wells containing no cardiolipin. The microtitration plate was incubated for 1 hour at RT with agitation at 40 rpm in an orbital shaker (American Scientific, Rotator V), washed 5 times with TBS and then 100 μL of 1:1000 goat anti-human IgG alkaline phosphatase conjugate (Zymed, Cat No. 62-8422) in 0.5% (w/v) BSA-TBS was added. Following incubation for 1 hour at RT, the microtitration plate was again washed 5 times with TBS and the colorimetric enzyme detection developed by adding 100 μL of PMPP solution (7.8 g phenolphthalein monophosphate plus 69.5 g of 2-amino-2-methyl-1-propanol in 100 mL water stock solution diluted 1:26 with water). After 21 minutes, the reaction was stopped by adding 50 μL of 0.2 M Na2HPO4 (Mallinckrodt) to each well. Absorbance at 550 nm was read in a microplate reader (Bio-Tek Instruments, Model EL 311). The amount of peptide that inhibited ACA-6501 binding by 50%, the IC50, was calculated from the graph at the intersection of half-maximal absorbance with amount of peptide added.

ACA-6641 [1] = test: Phage-capture ELISA; format: binding, human; settings: ACA-6641 screen
Method: The phage-capture ELISA consists of the following steps. Microtitration wells are coated with aPL antibody and phage clones are added as in the micropanning assay. Unbound phage are washed away and the amount of bound phage is quantitated using an enzyme-conjugated goat antiserum which binds the major coat protein of the phage. Phage screened using phage-capture ELISA react with many aPL antibodies and provide a strong signal in subsequent ELISA assays. This intermediate level of sensitivity allows for greater efficiency in the peptide synthesis effort since few micropanning-positive phage are phage-capture ELISA positive. As a result, peptides synthesized from positive phage-capture ELISA phage are generally immunoreactive.
AffACA-6641 was isolated from 4 mL of plasma taken from patient number 6641. AffACA-6641 (10 μg) was incubated with the pooled p-III phage libraries in a final volume of 100 μL as described previously. Following four rounds of biopanning, 45 clones from the 3rd and 4th rounds were tested by micropanning. Of the 45, 23 scored negative. The 3rd round phage yielded two clones that scored 4+, two that scored 3+ and two that scored 2+. From the 4th round, one clone scored 4+, one scored 3+ and three scored 2+. […] Four base DNA sequencing gave the following translated peptide sequence: […]

ACA-7005 = test: Competitive binding peptide ACA ELISA, cardiolipin/β2-GPI-coated plates; design: species or system human
Method: as §1, §2, §3, §4

ACA-6626 = test: as above; design: species or system human
Method: as §1, §2, §3, §4

ACA-6903 = test: as above; design: species or system human
Method: as §1, §2, §3, §4

ACA-6638 = test: as above; design: species or system human
Method: as §1, §2, §3, §4

ACA-7004 = test: as above; design: species or system human
Method: as §1, §2, §3, §4

ACA-6701 = test: as above; design: species or system human
Method: as §1, §2, §3, §4

ACA-6641 [2] = test: as above; design: species or system human
Method: as §1, §2, §3, §4

ACA-6644 = test: as above; design: species or system human
Method: as §1, §2, §3, §4

ACA-6501 = test: as above; design: species or system human
Method in brief: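 Monomeric peptides at several amounts were preincubated ~1 h at RT with ACA-6501 serum (final 1:400), then added to cardiolipin-coated, fish-gelatin-blocked plates with β2-GPI for 1 h at RT. Bound IgG was detected with alkaline phosphatase anti-human IgG and phenolphthalein monophosphate, read at 550 nm. IC50 was the peptide amount at half-maximal absorbance.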

ACA-6635 = test: as above; design: species or system human; settings: ACA serum 6635 RS
ACA = test: Structure Activity Relationship of the Crossreactive ACA Epitope (relative activity); format: binding, human; settings: LJP 688 = 100
From the text: Peptide 6641/3G3 (LJP 688) was subjected to a number of analyses. The analyses included truncation at both the N-terminus and the C-terminus, disulfide substitution, substitution of alanine and glycine for amino acids in positions 2 through 8, substitution of branched aliphatic amino acids in positions 2, 4, 5 and 8, substitution of amino acids affecting conformation of the peptide, including substitution of α-methyl amino acids, substitution of basic amino acids in position 7, substitution of D-amino acids in positions 2 through 9, and the substitution of N-α-methyl amino acids in positions 1 through 9.

[3] = peptide 1 mg/mL, affinity purified antibody

SMILES: CC(C)C[C@@H]1NC(=O)[C@@H](NC(=O)[C@@H]2CCCN2C(=O)CNC(=O)[C@H](C)N)CSSC[C@@H](C(=O)N2CCC[C@H]2C(=O)NCC(=O)O)NC(=O)[C@H](CC(C)C)NC(=O)[C@H](CCCCN)NC(=O)CNC(=O)[C@H](CC(C)C)NC(=O)[C@H](C(C)C)NC(=O)CNC1=O [LJP 688, AGP-CLGVLGKLC-PG] (H-AGPCLGVLGKLCPG-OH; disulfide 4-12)
- complete inhibition, cross-reactivity with 10 of 10 ACA antibodies (ACA antibodies; at 1.8 mg/mL): > 80%
- IC50 for peptide LJP 688, mean ± sd (ACA antibodies; mean over ten ACA sera): 860 ± 160 µg/mL
- Percent Inhibition of AffACA by Peptide Monomers, Ave. (ACA antibodies; peptide 1 mg/mL, average over nine antibodies): 97%
- result in the phage-capture ELISA (ACA-6641 [1]): strongly positive
- IC50 for peptide LJP 688 (ACA-7005; ACA serum 7005 RFL): 750 µg/mL
- Percent Inhibition of AffACA by Peptide Monomers, 7005 (ACA-7005; [3]): 95%
- IC50 for peptide LJP 688 (ACA-6626; ACA serum 6626 RS): 1090 µg/mL
- Percent Inhibition of AffACA by Peptide Monomers, 6626 (ACA-6626; [3]): 100%
- IC50 for peptide LJP 688 (ACA-6903; ACA serum 6903 RS): 800 µg/mL
- Percent Inhibition of AffACA by Peptide Monomers, 6903 (ACA-6903; [3]): 100%
- IC50 for peptide LJP 688 (ACA-6638; ACA serum 6638 RS): 810 µg/mL
- Percent Inhibition of AffACA by Peptide Monomers, 6638 (ACA-6638; [3]): 100%
- IC50 for peptide LJP 688 (ACA-7004; ACA serum 7004 RFL): 670 µg/mL
- Percent Inhibition of AffACA by Peptide Monomers, 7004 (ACA-7004; [3]): 100%
- IC50 for peptide LJP 688 (ACA-6701; ACA serum 6701 RS): 1070 µg/mL
- Percent Inhibition of AffACA by Peptide Monomers, 6701 (ACA-6701; [3]): 100%
- IC50 for peptide LJP 688 (ACA-6641 [2]; ACA serum 6641 RS): 890 µg/mL and 510 µg/mL
- Percent Inhibition of AffACA by Peptide Monomers, 6641 (ACA-6641 [2]; [3]): 93%
- IC50 for peptide LJP 688 (ACA-6644; ACA serum 6644 RS): 760 µg/mL
- Percent Inhibition of AffACA by Peptide Monomers, 6644 (ACA-6644; [3]): 100%
- IC50 for peptide LJP 688 (ACA-6501; ACA serum 6501 RS, RFL): 890 µg/mL and 1100 µg/mL
- with ACA 6501 150 ug/mL (ACA-6501; Optimization of Peptide 3G3, inf = no 50% inhibition): 850 µg/mL
- Percent Inhibition of AffACA by Peptide Monomers, 6501 (ACA-6501; [3]): 86%
- IC50 for peptide LJP 688 (ACA-6635): 1000 µg/mL
- Relative Activity (ACA): 100
